# Columns and labels:
# OAT3 [1] = molecular target: T1, OAT3 (Homo sapiens, UniProt Q8TCC7); conditions: cited from earlier work
# T1 sequence (Q8TCC7 1-542): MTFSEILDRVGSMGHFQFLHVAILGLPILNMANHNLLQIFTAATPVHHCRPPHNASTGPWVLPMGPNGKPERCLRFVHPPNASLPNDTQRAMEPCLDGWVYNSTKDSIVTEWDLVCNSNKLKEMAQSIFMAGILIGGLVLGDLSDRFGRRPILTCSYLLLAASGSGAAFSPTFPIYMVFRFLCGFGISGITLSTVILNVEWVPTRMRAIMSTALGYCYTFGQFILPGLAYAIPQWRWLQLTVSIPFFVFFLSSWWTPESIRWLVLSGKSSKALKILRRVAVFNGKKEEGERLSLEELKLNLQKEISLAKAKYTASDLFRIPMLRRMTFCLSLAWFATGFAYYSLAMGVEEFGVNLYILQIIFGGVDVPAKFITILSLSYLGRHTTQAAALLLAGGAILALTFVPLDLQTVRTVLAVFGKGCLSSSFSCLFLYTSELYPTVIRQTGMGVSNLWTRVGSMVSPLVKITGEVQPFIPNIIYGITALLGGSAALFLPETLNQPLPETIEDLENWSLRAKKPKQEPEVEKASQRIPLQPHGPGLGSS
# CYP3A4 [2] = conditions: human, in vivo, 600 mg, cited from earlier work
# CYP2B6 mRNA = assay: CYP induction in cultured human hepatocytes
# NTCP = conditions: hepatic uptake, model; cited from earlier work
# OATP1B1/1B3 = conditions: hepatic uptake, model; cited from earlier work
# OAT3 [3] = conditions: read-out: OAT3 Ki; lowest reported value; cited from earlier work
# CYP3A4 [4] = conditions: multiple doses of rifampicin 600 mg q.d.; cited from earlier work
# [5] = cited from earlier work
# [6] = Venetoclax observed clinical PK; assay type: in vivo; conditions: human, plasma, oral
# CYP1A2 mRNA = assay: CYP induction in cultured human hepatocytes
# CYP2C19 mRNA = assay: CYP induction in cultured human hepatocytes; conditions: all three hepatocyte cultures
# CYP2C9 mRNA = assay: CYP induction in cultured human hepatocytes
# human P‐gp = human P‐gp (Homo sapiens, UniProt P08183); assay: P-gp inhibition assay, bidirectional digoxin permeability in Caco-2 cells; assay type: cell-based
# CYP3A4 mRNA [7] = assay: in vitro; conditions: human
# CYP3A4 mRNA [8] = conditions: human, hepatocytes
# CYP3A4 [9] = assay: PBPK; parameters: species or system human; conditions: based on simulated midazolam results
# CYP3A4 [10] = conditions: patients, cited from earlier work
# OATP1B3 = molecular target: T2, OATP1B3 (Homo sapiens, UniProt Q9NPD5); assay: Transporter inhibition in transfected HEK293 cells; assay type: cell-based
# T2 sequence (Q9NPD5 1-702): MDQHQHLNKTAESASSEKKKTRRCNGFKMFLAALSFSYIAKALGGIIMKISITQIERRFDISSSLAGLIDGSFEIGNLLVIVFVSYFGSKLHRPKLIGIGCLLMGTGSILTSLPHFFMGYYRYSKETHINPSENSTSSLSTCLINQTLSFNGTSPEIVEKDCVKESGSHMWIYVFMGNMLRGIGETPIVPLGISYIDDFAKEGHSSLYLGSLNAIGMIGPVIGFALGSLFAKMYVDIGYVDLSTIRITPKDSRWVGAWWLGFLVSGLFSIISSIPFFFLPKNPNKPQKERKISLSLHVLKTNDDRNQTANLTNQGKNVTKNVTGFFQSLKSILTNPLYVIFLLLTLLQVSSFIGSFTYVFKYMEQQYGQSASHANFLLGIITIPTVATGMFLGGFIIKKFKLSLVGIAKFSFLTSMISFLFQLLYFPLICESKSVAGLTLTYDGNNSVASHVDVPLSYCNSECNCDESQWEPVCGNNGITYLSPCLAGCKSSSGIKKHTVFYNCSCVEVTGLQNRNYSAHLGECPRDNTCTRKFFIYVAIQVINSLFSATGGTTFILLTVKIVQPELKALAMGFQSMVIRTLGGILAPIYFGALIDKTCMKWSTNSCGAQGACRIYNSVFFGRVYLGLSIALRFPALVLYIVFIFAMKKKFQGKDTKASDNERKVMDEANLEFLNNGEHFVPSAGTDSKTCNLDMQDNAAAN
# CYP2C8 mRNA = assay: CYP induction in cultured human hepatocytes
# OATP1B1 = molecular target: T3, OATP1B1 (Homo sapiens, UniProt Q9Y6L6); assay: Transporter inhibition in transfected HEK293 cells; assay type: cell-based
# T3 sequence (Q9Y6L6 1-691): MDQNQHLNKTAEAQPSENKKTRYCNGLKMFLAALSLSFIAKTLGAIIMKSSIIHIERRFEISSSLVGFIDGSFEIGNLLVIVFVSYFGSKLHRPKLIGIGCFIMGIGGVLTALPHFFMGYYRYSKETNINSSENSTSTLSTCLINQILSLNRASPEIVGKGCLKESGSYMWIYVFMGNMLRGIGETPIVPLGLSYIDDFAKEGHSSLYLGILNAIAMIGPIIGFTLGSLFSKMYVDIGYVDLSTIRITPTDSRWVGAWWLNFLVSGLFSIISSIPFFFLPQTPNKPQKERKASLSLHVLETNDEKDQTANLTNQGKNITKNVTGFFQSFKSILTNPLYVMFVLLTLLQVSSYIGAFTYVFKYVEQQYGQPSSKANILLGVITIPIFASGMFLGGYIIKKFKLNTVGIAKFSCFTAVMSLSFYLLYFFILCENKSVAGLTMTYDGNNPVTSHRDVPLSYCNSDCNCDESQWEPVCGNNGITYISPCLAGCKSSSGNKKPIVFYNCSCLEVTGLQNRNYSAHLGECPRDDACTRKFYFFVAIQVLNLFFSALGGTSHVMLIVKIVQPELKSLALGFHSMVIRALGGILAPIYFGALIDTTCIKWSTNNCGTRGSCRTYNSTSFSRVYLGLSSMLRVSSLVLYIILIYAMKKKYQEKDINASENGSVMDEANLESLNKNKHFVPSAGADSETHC
# CYP3A4 [11] = conditions: ivosidenib PBPK model; cited from earlier work
# OCT2 = molecular target: T4, OCT2 (Homo sapiens, UniProt O15244); assay: Transporter inhibition in transfected HEK293 cells; assay type: cell-based
# T4 sequence (O15244 1-555): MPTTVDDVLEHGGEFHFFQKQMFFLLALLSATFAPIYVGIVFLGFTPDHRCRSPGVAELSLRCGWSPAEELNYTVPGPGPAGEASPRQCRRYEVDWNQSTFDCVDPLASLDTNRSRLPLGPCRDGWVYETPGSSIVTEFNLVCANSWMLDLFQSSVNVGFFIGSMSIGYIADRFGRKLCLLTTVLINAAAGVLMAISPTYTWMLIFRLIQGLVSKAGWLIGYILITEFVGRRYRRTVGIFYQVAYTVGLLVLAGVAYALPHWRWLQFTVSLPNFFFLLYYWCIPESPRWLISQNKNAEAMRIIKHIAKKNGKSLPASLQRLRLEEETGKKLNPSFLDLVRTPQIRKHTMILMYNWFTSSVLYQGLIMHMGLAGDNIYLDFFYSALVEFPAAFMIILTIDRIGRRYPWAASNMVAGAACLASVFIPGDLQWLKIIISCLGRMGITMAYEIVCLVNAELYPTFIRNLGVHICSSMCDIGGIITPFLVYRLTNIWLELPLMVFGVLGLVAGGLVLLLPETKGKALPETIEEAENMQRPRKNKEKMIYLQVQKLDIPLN
# OAT3 [12] = molecular target: T1, OAT3; assay: Transporter inhibition in transfected HEK293 cells; assay type: cell-based
# OAT1 = molecular target: T5, OAT1 (Homo sapiens, UniProt Q4U2R8); assay: Transporter inhibition in transfected HEK293 cells; assay type: cell-based
# T5 sequence (Q4U2R8 1-563): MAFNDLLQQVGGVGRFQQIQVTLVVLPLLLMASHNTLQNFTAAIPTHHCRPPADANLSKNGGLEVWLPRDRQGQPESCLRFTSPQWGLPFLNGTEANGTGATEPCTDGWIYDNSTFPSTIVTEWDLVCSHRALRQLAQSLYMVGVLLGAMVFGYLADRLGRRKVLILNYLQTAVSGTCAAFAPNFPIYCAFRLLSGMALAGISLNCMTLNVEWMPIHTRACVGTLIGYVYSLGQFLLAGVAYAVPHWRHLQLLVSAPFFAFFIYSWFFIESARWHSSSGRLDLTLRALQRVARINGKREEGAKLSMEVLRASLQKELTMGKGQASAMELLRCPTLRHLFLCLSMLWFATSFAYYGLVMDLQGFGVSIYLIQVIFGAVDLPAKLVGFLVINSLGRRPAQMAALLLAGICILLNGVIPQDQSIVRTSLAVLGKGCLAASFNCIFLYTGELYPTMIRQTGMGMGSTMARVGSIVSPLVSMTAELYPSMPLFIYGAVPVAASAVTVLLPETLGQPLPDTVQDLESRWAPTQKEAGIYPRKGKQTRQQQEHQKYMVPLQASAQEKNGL
# [13] = human, cultured human hepatocytes
# Chain of human P‐gp (P08183 whole entry): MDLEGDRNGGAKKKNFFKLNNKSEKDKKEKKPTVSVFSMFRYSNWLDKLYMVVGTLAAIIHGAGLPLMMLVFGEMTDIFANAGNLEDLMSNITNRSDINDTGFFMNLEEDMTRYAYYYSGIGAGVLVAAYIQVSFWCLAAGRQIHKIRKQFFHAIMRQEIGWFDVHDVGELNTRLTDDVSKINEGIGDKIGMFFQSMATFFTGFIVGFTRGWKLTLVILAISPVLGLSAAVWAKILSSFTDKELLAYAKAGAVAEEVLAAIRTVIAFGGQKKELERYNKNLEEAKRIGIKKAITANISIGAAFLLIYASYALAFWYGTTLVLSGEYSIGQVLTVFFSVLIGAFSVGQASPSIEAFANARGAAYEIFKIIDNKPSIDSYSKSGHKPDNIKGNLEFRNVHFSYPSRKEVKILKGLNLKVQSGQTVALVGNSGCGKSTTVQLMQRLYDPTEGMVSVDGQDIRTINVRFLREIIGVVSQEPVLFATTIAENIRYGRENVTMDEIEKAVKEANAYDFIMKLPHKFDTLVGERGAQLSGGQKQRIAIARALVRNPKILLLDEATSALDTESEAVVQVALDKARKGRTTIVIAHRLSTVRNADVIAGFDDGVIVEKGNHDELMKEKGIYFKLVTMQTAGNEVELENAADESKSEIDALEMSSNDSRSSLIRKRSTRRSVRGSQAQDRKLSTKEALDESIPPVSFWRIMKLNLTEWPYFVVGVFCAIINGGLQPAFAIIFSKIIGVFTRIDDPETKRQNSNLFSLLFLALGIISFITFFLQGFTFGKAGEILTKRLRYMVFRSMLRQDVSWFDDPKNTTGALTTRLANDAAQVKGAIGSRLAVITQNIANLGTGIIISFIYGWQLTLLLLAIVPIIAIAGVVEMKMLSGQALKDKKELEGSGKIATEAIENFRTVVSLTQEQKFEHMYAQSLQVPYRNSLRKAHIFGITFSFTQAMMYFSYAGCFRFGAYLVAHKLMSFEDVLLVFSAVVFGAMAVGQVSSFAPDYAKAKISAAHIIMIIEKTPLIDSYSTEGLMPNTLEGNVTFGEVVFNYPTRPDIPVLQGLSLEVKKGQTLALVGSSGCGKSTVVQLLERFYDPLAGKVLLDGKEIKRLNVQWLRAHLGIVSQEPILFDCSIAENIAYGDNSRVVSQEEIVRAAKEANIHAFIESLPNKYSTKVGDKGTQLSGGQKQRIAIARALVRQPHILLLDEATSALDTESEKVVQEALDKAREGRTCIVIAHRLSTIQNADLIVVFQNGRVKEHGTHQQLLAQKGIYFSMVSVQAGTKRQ
smiles,measurement,setting,value
CN(Cc1cnc2nc(N)nc(N)c2n1)c1ccc(C(=O)N[C@@H](CCC(=O)O)C(=O)O)cc1 [Methotrexate],reported methotrexate AUCR with probenecid,OAT3 [1],1.57 fold
Cc1ncc2n1-c1ccc(Cl)cc1C(c1ccccc1F)=NC2 [Midazolam],"reduction of midazolam AUC, i.v.",CYP3A4 [2]; iv,51%
same,"reduction of midazolam AUC, oral",CYP3A4 [2]; po,92%
"CCC1(c2ccccc2)C(=O)NC(=O)NC1=O [phenobarbital, reference compound]",increase in CYP2B6 mRNA levels,"CYP2B6 mRNA; prototypical inducer (positive control), human hepatocytes",13 ± 4.7 fold
CC(C)c1nc(N(C)S(C)(=O)=O)nc(-c2ccc(F)cc2)c1/C=C/[C@@H](O)C[C@@H](O)CC(=O)O [Rosuvastatin],relative contribution of NTCP to uptake of rosuvastatin,NTCP,35%
same,relative contribution of OATP1B1/1B3 to uptake of rosuvastatin,OATP1B1/1B3,65%
CC1(C)CCC(CN2CCN(c3ccc(C(=O)NS(=O)(=O)c4ccc(NCC5CCOCC5)c([N+](=O)[O-])c4)c(Oc4cnc5[nH]ccc5c4)c3)CC2)=C(c2ccc(Cl)cc2)C1 [Venetoclax],decrease of venetoclax AUC,CYP3A4 [4],~80%
same,decrease of venetoclax Cmax,CYP3A4 [4],~ 70%
same,estimated mean Vss/F from clinical data,[5]; patients,3.67 L/kg
same,observed mean CL/F,[5]; venetoclax,14.9 L/h
same,Vd,[6],0.36 to 1.78 L/kg
"COc1ccc2[nH]c([S+]([O-])Cc3ncc(C)c(OC)c3C)nc2c1 (stereo not drawn) [omeprazole, reference compound]",increase in CYP1A2 mRNA levels,CYP1A2 mRNA; prototypical inducer (positive control),104 ± 97 fold
N#Cc1ccnc(N2C(=O)CC[C@H]2C(=O)N(c2cncc(F)c2)[C@H](C(=O)NC2CC(F)(F)C2)c2ccccc2Cl)c1 [Ivosidenib],CYP2B6 mRNA mean Emax,"CYP2B6 mRNA; human hepatocytes, 3 donors",2.85 ± 1.53
same,EC50 at 72 h,CYP2B6 mRNA; [13],2.93 ± 0.65 µM
same,effect on CYP2C19 mRNA levels,CYP2C19 mRNA,inconclusive
same,CYP2C9 mRNA mean Emax,"CYP2C9 mRNA; human hepatocytes, 3 donors",3.39 ± 0.63
same,EC50 at 72 h,CYP2C9 mRNA; [13],3.23 ± 1.04 µM
same,IC50,human P‐gp,19.6 µM
same,EC50,CYP3A4 mRNA [7],12.5 ± 9.2 µM
same,CYP3A4 mRNA mean Emax,CYP3A4 mRNA [8],78.2 ± 113
same,CYP1A2 mRNA induction,"CYP1A2 mRNA; 3 donors, 0.05-90 μM once daily 3 days",no significant induction
same,classification as CYP3A4 inducer as per regulatory guidance,CYP3A4 [9],strong inducer
same,increase of mean 4β‐OHC levels,CYP3A4 [10]; 500 mg ivosidenib,~ 199%
same,increase of 4β‐OHC,CYP3A4 [10]; after 28 days of 100 mg b.i.d. and 100–1200 mg q.d. ivosidenib,up to 371%
same,IC50,OATP1B3,22.8 µM
same,CYP2C8 mRNA mean Emax,"CYP2C8 mRNA; human hepatocytes, 3 donors",3.79 ± 1.28
same,EC50 at 72 h,CYP2C8 mRNA; [13],8.1 ± 3.3 µM
same,IC50,OATP1B1,9.56 µM
same,"fm (fraction metabolized, CYP3A4)",CYP3A4 [11],0.865
same,IC50,OCT2,> 65 µM
same,IC50,OAT3 [12],0.322 µM
same,IC50,OAT1,> 65 µM

# — PMC8213421 (CPT: Pharmacometrics & Systems Pharmacology, 2021)
